The NIST ThermoML archive (doi:10.1007/s10765-013-1553-5)
Numbers after ± are expanded uncertainties.

Settings: Liquid, Closed cell (Static) method

F/C=C\C(F)(F)F [(Z)-1,3,3,3-tetrafluoro-1-propene]
Settings	vapor or sublimation pressure [kPa]
238.13 K	12 ± 2
243.1 K	16 ± 2
248 K	21 ± 2
252.9 K	27 ± 2
257.81 K	34 ± 2
263.02 K	44 ± 2
267.91 K	55 ± 2
272.83 K	68 ± 2
277.94 K	85 ± 2
282.78 K	102 ± 2
283.15 K	103 ± 2
285.15 K	111 ± 2
287.15 K	120 ± 2
287.62 K	123 ± 2
289.15 K	129 ± 2
291.15 K	139 ± 2
292.62 K	148 ± 2
293.15 K	149 ± 2
295.15 K	160 ± 2
297.15 K	172 ± 2
298 K	178 ± 2
299.15 K	184 ± 2
301.15 K	198 ± 2
303.15 K	211 ± 2
303.18 K	212 ± 2
305.15 K	225 ± 2
307.15 K	241 ± 2
308.18 K	249 ± 2
309.15 K	256 ± 2
311.15 K	273 ± 2
313.15 K	291 ± 2
313.17 K	291 ± 2
315.15 K	309 ± 2
317.15 K	329 ± 2
318.14 K	338 ± 2
319.15 K	349 ± 2
321.14 K	370 ± 2
323.14 K	392 ± 2
323.15 K	392 ± 2
325.15 K	415 ± 2
327.15 K	439 ± 2
328.12 K	451 ± 2
329.15 K	465 ± 2
331.15 K	491 ± 2
333.11 K	518 ± 2
333.15 K	519 ± 2
335.15 K	548 ± 2
337.15 K	578 ± 2
338.12 K	591 ± 2
339.15 K	609 ± 3
341.15 K	641 ± 3
343.07 K	672 ± 3
343.15 K	675 ± 3
345.15 K	710 ± 3
347.16 K	746 ± 3
348.16 K	764 ± 3
349.15 K	784 ± 3
351.15 K	823 ± 3
353.12 K	861 ± 3
353.16 K	863 ± 3
358.13 K	969 ± 3
363.14 K	1086 ± 3
368.09 K	1212 ± 3
372.61 K	1336 ± 4
